Experimental data taken from US11696913B2, “Prolonged ectoparasite-controlling agent for animal” (MITSUI CHEMICALS AGRO, INC., priority 2017, dated 2023).
Read-outs that look alike come from different tables or passages of the source.

What was measured:
Ctenocephalides felis [1] = experiment: Ctenocephalides felis in-vitro feeding test with fleas (CTECFE oral); conditions: 48 hours, read-out: insecticidal feeding activity; for pest or weed control at 0.8 ppm: dose 0.8 ppm in citrated cattle blood; for pest or weed control at 4 ppm: dose 4 ppm in citrated cattle blood; for pest or weed control at 0.16 ppm: dose 0.16 ppm in citrated cattle blood
How it was run: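 About 20 unfed adult cat fleas fed through parafilm on citrated cattle blood containing test substance (DMSO solution diluted in blood), held at about 37° C. Kill rate scored after 48 hours, 100% meaning all fleas dead.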

Plutella xylostella = experiment: Insecticidal testing against diamondback moth; format: in vivo; conditions: foliar, 144 h, concentration 100 ppm, cabbage leaf dip, third-stage larvae, after 6 days, read-out: pesticidal rate
Text: Insecticidal Testing Against Diamondback Moth (Plutella xylostella)

Spodoptera litura = experiment: Insecticidal testing against common cutworm; format: in vivo; conditions: foliar, 144 h, concentration 100 ppm, cabbage leaf dip, second-stage larvae, after 6 days, read-out: pesticidal rate
Text: Insecticidal Testing Against Common Cutworm (Spodoptera litura)

[2] = tested on: Rhipicephalus (Boophilus) microplus; experiment: In vitro injection test with Rhipicephalus (Boophilus) microplus (BOOPMI Inj); conditions: 168 h, laid fertile eggs after 7 days, read-out: acaricidal activity; for pest or weed control at 0.00016 mg: dose 0.16 μg/animal injected; for pest or weed control at 0.0008 mg: dose 0.8 μg/animal injected
How it was run: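 Test substance in DMSO; 1 μl injected into abdomen of each of 5 engorged adult female ticks, then held at 28° C., 85% rel. hum. Activity scored after 7 days from laying of fertile eggs: 100% = no eggs or all infertile, 0% = all eggs fertile.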

Laodelphax striatellus = experiment: Insecticidal testing against small brown planthopper; format: in vivo; conditions: 144 h, concentration 100 ppm, sprayed rice seedlings, after 6 days, read-out: pesticidal rate
Protocol: Insecticidal Testing Against Small Brown Planthopper (Laodelphax striatellus)
An additional test was carried out with 10 small brown planthoppers by preparing an acetone solution of the testing compound diluted to a predetermined concentration, spraying the solution onto rice seedlings and air drying the rice seedlings. The medicament was all used as received. The rice seedlings were placed in a constant-temperature room at 25° C., and the survival rate was investigated after 6 days. The test was carried out by means of one group of 10 pests.

Ctenocephalides felis [3] = experiment: In vitro contact test with fleas; conditions: read-out: insecticidal activity; for pest or weed control at 0.2 µg/cm2, 0.2 µg/cm2: dose 0.2 μg/cm^2, dead or moribund fleas after 48 h; for pest or weed control at 1 µg/cm2, 1 µg/cm2: dose 1 μg/cm^2, dead or moribund fleas after 48 h
How it was run: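 Adult male and female cat fleas (5-10 per tube) placed in glass tubes coated with compound from acetone solution (900 ppm gives 5 μg/cm^2), kept at room temperature and ambient humidity. After 48 h, motionless or uncoordinated fleas scored dead or moribund; activity expressed as % dead or moribund.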

Ctenocephalides felis [4] = experiment: Systemic treatment in-vivo test with cat flea on rats; conditions: intraperitoneal injection, 5 mg/kg; for inhibition in vivo at 5 mg/kg: Ctenocephalides felis, ip
Protocol: Systemic Treatment In-Vivo Test with American Dog Tick Nymph and Cat Flea on Rats
Type of study and overall study design: The method is a randomized non-blinded efficacy study in accordance with European animal welfare requirements. Rats (Rattus norvegicus) were randomized based on pre-treatment flea counts. The efficacy of treatment was determined by comparison of the flea and tick counts of different treatment groups versus the placebo-treated control group. The experimental unit was the individual study animal. Method and route of administration: The compound was applied in a suitable solvent and carrier (more specifically, added to glycerol formal; in case of poorly soluble compounds, a solvent mixture with up to 25% by volume of N-methyl pyrrolidone may be used.) considering the individual body weight as an intraperitoneal injection.
Experimental infestation: On the day of treatment and weekly thereafter, 30 ticks (D. variabilis nymphs) were released onto the back of each rat, and 30 fleas (C. felis) were released onto the back of each rat 24 h later.
Tick and Flea counting: Rats were thoroughly examined and ticks and fleas were manually removed 48 h (±4 h) after tick infestation and 24 h after flea infestation. Live fleas and live attached engorged ticks were counted. In non-evident cases, engorgement status was evaluated by squeezing the tick on a filter paper to find traces of blood as sign for engorgement.

SMILES	pest or weed control at 0.8 ppm (Ctenocephalides felis [1])	pest or weed control at 4 ppm (Ctenocephalides felis [1])	pest or weed control at 100 ppm (Plutella xylostella)	pest or weed control at 100 ppm (Spodoptera litura)	pest or weed control at 0.00016 mg [2]	pest or weed control at 0.0008 mg [2]	pest or weed control at 100 ppm (Laodelphax striatellus)	pest or weed control at 0.2 µg/cm2, 0.2 µg/cm2 (Ctenocephalides felis [3])	pest or weed control at 1 µg/cm2, 1 µg/cm2 (Ctenocephalides felis [3])	pest or weed control at 0.16 ppm (Ctenocephalides felis [1])	further results
CN(C(=O)c1ccc(OC(F)(F)F)cc1)c1cccc(C(=O)Nc2c(I)cc(C(F)(C(F)(F)F)C(F)(F)F)cc2C(F)(F)F)c1F [Compound 61]	95%	95%	≥ 70%	≥ 70%	100%	100%	≥ 70%	95%	95%	–	–
CC(C)c1ccc(C(=O)N(C)c2cccc(C(=O)Nc3c(I)cc(C(F)(C(F)(F)F)C(F)(F)F)cc3C(F)(F)F)c2F)cc1 [Compound 47]	–	95%	≥ 70%	≥ 70%	–	100%	≥ 70%	95%	95%	–	–
CN(C(=O)c1ccc(S(C)(=O)=O)cc1)c1cccc(C(=O)Nc2c(I)cc(C(F)(C(F)(F)F)C(F)(F)F)cc2C(F)(F)F)c1F [Compound 49]	95%	95%	≥ 70%	≥ 70%	100%	100%	≥ 70%	95%	95%	95%	pest or weed control at 0.0064 ppm (Ctenocephalides felis [1]; dose 0.0064 ppm in citrated cattle blood): 95%; pest or weed control at 0.032 ppm (Ctenocephalides felis [1]; dose 0.032 ppm in citrated cattle blood): 95%; pest or weed control at 0.04 µg/cm2, 0.04 µg/cm2 (Ctenocephalides felis [3]; dose 0.04 μg/cm^2, dead or moribund fleas after 48 h): 95%
CN(C(=O)c1ccc2c(c1)CCCC2)c1cccc(C(=O)Nc2c(I)cc(C(F)(C(F)(F)F)C(F)(F)F)cc2C(F)(F)F)c1F [Compound 52]	–	95%	≥ 70%	≥ 70%	–	100%	–	–	95%	–	–
CN(C(=O)c1ccc(S(N)(=O)=O)cc1)c1cccc(C(=O)Nc2c(I)cc(C(F)(C(F)(F)F)C(F)(F)F)cc2C(F)(F)F)c1F [Compound 45]	95%	95%	≥ 70%	≥ 70%	100%	100%	–	–	–	95%	–
O=C(Nc1cccc(C(=O)Nc2c(I)cc(C(F)(C(F)(F)F)C(F)(F)F)cc2C(F)(F)F)c1F)c1ccc(C(F)(F)F)nc1C(F)(F)F [Compound 112]	95%	95%	≥ 70%	≥ 70%	–	100%	–	–	–	95%	–
Cc1cc(C2=NOC(c3cc(Cl)cc(Cl)c3)(C(F)(F)F)C2)ccc1C(=O)NCC(=O)NCC(F)(F)F (centres unmarked) [Fluralaner, fluralaner, reference compound]	–	–	–	–	–	–	–	–	–	–	Geometric mean percent reduction in live flea (Ctenocephalides felis) counts compared to untreated control rats (Ctenocephalides felis [4]; SD 2): 100%; Geometric mean percent reduction in live flea (Ctenocephalides felis) counts compared to untreated control rats (Ctenocephalides felis [4]; SD 9): 100%; Geometric mean percent reduction in live flea (Ctenocephalides felis) counts compared to untreated control rats (Ctenocephalides felis [4]; SD 16): 51%; Geometric mean percent reduction in live flea (Ctenocephalides felis) counts compared to untreated control rats (Ctenocephalides felis [4]; SD 23): 7%
CCN(C(=O)c1ccc(F)cc1)c1cccc(C(=O)Nc2c(I)cc(C(F)(C(F)(F)F)C(F)(F)F)cc2C(F)(F)F)c1F [Compound 43]	–	–	–	–	–	–	–	–	–	–	inhibition in vivo at 5 mg/kg (Ctenocephalides felis [4]; SD 2, read-out: Geometric mean percent reduction in live flea (Ctenocephalides felis) counts compared to untreated control rats): 100%; inhibition in vivo at 5 mg/kg (Ctenocephalides felis [4]; SD 9, read-out: Geometric mean percent reduction in live flea (Ctenocephalides felis) counts compared to untreated control rats): 99%; inhibition in vivo at 5 mg/kg (Ctenocephalides felis [4]; SD 16, read-out: Geometric mean percent reduction in live flea (Ctenocephalides felis) counts compared to untreated control rats): 90%; inhibition in vivo at 5 mg/kg (Ctenocephalides felis [4]; SD 23, read-out: Geometric mean percent reduction in live flea (Ctenocephalides felis) counts compared to untreated control rats): 91%; inhibition in vivo at 5 mg/kg (Ctenocephalides felis [4]; SD 30, read-out: Geometric mean percent reduction in live flea (Ctenocephalides felis) counts compared to untreated control rats): 13%
